Data on 17 compounds can be found in US20150087627A1, “COMBINATION OF KINASE INHIBITORS AND USES THEREOF” (Intellikine LLC, priority 2011, published 2015).

Some results are limits rather than exact numbers.

Format in all cases: biochemical
For experiment [1], the target named is T1, PI3K β (p110β/p85α) (Homo sapiens, UniProt P42338).
T1 construct: purchased Upstate / Millipore Corporation
In words: PI 3-Kinase (human) HTRF assay, PI3K β. The note with it: read-out: PI3K β IC50.

The target of experiment [2] is T2, PI3K γ (p110γ) (Homo sapiens, UniProt P48736).
T2 construct: purchased Upstate / Millipore Corporation
T2 sequence (P48736 whole entry): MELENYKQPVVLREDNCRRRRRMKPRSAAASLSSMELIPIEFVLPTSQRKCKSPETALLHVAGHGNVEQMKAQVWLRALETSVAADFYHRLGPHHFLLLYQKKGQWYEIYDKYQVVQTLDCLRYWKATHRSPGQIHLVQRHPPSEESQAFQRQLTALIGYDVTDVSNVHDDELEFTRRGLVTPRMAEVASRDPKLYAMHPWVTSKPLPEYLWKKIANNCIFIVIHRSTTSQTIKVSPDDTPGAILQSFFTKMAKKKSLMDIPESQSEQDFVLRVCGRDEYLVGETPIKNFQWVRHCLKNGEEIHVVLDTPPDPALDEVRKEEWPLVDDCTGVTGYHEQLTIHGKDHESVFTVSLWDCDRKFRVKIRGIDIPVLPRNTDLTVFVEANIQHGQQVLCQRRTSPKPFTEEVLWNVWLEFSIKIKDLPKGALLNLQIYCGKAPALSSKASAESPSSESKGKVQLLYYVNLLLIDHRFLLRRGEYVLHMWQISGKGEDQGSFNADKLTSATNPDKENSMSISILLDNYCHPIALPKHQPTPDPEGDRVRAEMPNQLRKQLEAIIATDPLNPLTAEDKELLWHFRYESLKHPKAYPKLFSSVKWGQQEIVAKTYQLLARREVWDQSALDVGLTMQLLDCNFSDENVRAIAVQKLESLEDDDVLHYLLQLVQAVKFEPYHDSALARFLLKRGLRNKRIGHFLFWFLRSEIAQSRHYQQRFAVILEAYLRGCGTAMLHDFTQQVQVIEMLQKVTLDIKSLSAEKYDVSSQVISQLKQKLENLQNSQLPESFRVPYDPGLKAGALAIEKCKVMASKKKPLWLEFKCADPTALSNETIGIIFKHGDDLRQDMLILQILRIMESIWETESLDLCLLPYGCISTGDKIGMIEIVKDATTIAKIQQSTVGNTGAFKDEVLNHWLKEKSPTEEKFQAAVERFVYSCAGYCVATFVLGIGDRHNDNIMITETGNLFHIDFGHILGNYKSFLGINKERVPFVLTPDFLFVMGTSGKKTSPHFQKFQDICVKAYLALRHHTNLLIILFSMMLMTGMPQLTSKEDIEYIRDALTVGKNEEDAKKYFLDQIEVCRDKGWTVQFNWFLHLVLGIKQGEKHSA
Briefly: PI 3-Kinase (human) HTRF assay, PI3K γ. The note with it: read-out: PI3K γ IC50.

The target in experiment [3] is T3, PI3K δ (Homo sapiens, UniProt O00329).
T3 construct: purchased Upstate / Millipore Corporation
T3 sequence (O00329 whole entry): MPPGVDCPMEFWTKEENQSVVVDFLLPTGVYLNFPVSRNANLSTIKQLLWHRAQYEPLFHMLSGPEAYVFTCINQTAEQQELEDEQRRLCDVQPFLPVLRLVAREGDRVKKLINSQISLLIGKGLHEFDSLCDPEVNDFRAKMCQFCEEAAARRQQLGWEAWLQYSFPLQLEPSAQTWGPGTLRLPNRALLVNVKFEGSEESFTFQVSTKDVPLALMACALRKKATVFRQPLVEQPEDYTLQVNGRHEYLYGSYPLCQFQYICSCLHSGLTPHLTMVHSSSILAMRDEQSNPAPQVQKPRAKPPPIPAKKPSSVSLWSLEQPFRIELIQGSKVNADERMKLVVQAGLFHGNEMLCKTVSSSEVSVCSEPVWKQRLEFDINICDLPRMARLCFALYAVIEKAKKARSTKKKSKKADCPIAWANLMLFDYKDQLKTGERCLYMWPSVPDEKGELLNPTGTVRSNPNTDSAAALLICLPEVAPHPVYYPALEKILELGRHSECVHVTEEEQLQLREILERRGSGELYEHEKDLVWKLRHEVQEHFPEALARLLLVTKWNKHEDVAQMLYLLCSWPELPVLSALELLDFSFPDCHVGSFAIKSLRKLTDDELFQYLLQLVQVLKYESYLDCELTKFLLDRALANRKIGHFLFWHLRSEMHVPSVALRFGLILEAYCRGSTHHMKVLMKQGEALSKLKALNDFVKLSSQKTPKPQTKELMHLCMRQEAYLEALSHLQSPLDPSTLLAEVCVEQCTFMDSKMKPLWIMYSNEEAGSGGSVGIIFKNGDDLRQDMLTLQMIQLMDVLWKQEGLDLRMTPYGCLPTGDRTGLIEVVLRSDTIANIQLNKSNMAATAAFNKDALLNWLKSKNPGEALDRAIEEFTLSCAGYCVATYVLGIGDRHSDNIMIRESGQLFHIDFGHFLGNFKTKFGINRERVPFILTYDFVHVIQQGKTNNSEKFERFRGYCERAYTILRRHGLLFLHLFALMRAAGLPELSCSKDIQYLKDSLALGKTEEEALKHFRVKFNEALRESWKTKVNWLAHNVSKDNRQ
T3 sequence (P27986 whole entry partner): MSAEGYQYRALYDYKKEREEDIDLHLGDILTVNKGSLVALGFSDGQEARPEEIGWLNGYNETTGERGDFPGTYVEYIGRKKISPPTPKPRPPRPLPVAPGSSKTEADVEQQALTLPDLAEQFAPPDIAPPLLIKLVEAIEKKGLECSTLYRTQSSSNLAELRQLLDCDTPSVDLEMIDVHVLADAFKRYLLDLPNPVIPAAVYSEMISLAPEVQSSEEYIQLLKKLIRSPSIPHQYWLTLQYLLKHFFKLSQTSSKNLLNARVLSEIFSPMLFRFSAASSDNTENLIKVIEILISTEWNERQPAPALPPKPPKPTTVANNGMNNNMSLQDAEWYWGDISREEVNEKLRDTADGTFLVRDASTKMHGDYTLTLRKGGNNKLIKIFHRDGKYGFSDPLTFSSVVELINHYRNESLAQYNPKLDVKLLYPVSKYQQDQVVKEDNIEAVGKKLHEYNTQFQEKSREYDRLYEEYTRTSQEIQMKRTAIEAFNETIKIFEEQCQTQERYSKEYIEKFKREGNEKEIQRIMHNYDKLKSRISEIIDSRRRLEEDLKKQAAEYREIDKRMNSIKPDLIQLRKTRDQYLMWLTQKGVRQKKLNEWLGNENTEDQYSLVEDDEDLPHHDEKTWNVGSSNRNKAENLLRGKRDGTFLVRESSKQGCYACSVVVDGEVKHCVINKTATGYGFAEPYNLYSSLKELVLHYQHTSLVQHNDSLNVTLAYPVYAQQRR
Briefly: PI 3-Kinase (human) HTRF assay, PI3K δ. As to conditions: read-out: PI3K δ IC50.

The target in experiment [4] is T4, PI3K α (p110α/p85α) (Homo sapiens, UniProt P42336).
T4 construct: purchased Upstate / Millipore Corporation
T4 sequence (P42336 whole entry): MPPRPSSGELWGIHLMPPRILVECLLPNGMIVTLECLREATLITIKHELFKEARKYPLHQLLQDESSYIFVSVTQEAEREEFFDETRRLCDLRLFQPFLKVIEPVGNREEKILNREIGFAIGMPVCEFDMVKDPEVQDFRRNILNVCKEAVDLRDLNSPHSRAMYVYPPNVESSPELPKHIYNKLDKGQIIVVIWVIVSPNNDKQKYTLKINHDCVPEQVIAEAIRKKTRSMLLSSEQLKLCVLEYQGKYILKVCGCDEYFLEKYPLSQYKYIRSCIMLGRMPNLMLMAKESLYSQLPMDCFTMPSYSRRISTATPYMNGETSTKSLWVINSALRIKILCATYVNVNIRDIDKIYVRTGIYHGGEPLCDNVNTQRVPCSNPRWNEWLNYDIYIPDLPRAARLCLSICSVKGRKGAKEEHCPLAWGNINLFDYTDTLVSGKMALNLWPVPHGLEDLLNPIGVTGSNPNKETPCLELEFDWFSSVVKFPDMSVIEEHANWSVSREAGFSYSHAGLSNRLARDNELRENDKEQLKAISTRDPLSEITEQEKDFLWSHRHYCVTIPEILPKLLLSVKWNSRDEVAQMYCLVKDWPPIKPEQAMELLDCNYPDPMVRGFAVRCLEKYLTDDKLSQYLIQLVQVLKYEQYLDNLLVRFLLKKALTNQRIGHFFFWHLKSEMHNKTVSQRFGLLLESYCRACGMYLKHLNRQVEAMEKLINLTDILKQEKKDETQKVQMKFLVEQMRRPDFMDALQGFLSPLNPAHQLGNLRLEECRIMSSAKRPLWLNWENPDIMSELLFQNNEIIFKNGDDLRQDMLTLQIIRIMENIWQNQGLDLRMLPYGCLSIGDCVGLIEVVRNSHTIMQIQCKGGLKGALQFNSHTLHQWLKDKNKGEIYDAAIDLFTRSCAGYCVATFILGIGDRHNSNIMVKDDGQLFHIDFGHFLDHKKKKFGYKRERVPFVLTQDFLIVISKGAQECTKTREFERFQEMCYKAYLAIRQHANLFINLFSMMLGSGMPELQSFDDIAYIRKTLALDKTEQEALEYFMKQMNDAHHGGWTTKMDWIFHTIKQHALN
T4 sequence (P27986 whole entry partner): as the sequence (P27986 whole entry partner) above
In words: PI 3-Kinase (human) HTRF assay, PI3K α. As to conditions: read-out: PI3K α IC50.

T1 sequence (P42338 whole entry): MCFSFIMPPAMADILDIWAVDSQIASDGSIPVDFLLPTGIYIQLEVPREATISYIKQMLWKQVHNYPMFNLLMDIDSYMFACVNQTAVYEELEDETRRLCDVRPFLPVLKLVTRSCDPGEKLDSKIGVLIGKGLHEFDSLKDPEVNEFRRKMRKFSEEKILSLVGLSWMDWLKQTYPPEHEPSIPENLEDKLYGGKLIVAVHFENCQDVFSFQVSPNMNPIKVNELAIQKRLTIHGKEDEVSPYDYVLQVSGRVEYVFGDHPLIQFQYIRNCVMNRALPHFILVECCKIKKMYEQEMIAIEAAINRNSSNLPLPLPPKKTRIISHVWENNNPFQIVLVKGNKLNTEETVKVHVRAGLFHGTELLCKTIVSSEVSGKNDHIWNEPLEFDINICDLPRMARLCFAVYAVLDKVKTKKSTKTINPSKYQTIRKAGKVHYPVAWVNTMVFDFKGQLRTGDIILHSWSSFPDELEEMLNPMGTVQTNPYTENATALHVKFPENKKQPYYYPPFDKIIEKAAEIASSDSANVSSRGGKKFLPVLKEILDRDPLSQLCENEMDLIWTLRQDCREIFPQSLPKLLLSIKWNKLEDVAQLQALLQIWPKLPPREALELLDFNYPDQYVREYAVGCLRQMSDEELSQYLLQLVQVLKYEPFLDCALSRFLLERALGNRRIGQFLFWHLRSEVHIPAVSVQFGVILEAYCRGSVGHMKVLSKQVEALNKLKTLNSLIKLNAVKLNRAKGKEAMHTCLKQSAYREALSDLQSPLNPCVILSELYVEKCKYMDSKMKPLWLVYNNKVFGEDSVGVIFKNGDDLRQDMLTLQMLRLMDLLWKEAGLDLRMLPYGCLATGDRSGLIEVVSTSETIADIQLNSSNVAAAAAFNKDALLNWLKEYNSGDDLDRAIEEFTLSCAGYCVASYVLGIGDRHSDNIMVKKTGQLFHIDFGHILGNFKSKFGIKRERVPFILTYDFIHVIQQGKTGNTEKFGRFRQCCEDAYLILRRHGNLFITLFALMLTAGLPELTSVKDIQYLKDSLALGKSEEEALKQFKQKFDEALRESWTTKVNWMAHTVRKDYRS
T1 sequence (P27986 whole entry partner): as the sequence (P27986 whole entry partner) above

`CCN(CC)CCNc1cnc2ccc(-c3ccc4oc(N)nc4c3)cc2n1` [Compound 218]: the IC50 is below 1000 nM in experiment [1], below 10000 nM in experiment [2], below 1000 nM in experiment [3] and below 1000 nM in experiment [4].

Turning to `Nc1nc2cc(-c3ccc4ncc(NCCN5CCCC5)nc4c3)ccc2o1` [Compound 219], the IC50 in experiment [1], in experiment [2], in experiment [3] and in experiment [4] was below 1000 nM each time.

In the case of `CCN(CC)CCCNc1cnc2ccc(-c3ccc4oc(N)nc4c3)cc2n1` [Compound 220], the IC50 in experiment [1] is below 1000 nM; in experiment [2], below 1000 nM; in experiment [3], below 100 nM; in experiment [4] it was below 100 nM.

In the case of `Nc1nc2cc(-c3ccc4ncc(NCCCN5CCOCC5)nc4c3)ccc2o1` [Compound 222], the IC50 in experiment [1] is below 1000 nM; in experiment [2] it was below 1000 nM; in experiment [3] it was below 100 nM; in experiment [4], below 100 nM.

Take `Cc1ccn(C2CCN(c3cnc4ccc(-c5ccc6oc(N)nc6c5)cc4n3)CC2)n1` [Compound 223]: the IC50 was above 10000 nM in experiment [1], below 1000 nM in experiment [2], above 10000 nM in experiment [3] and below 100 nM in experiment [4].

`CCN(CC)CCn1cnc2ccc(-c3ccc4oc(N)nc4c3)cc2c1=O` [Compound 224]: the IC50 was above 10000 nM in experiment [1], above 10000 nM in experiment [2], above 10000 nM in experiment [3] and below 10000 nM in experiment [4].

Consider `Nc1nc2cc(-c3ccc4ncc(N5CCN(C(=O)[C@H]6CCCN6)CC5)nc4c3)ccc2o1` [Compound 225], for which the IC50 in experiment [1], in experiment [2], in experiment [3] and in experiment [4] was below 100 nM throughout.

As for `Nc1nc2cc(-c3ccc4ncc(N5CCN(C(=O)C6(N)CC6)CC5)nc4c3)ccc2o1` [Compound 226], the IC50 in experiment [1] is above 10000 nM; in experiment [2], below 10000 nM; in experiment [3] it was below 10000 nM; in experiment [4], below 1000 nM.

On to `Nc1nc2ccc(-c3ccc4nnc(-c5ccncc5)n4c3)cc2o1` [Compound 230], for which the IC50 in experiment [1] is below 1000 nM; in experiment [2], below 1000 nM; in experiment [3] it was below 10000 nM; in experiment [4], below 10000 nM.

`COc1nc(-c2ccc3oc(N)nc3c2)cnc1N` [Compound 238]: the IC50 is below 1000 nM in experiment [1], below 1000 nM in experiment [2], below 10000 nM in experiment [3] and below 1000 nM in experiment [4].

For `CC(=O)Nc1nc2ccc(-c3ccc4nc(N)oc4c3)cc2s1` [Compound 242], the IC50 in experiment [1] is below 100 nM; in experiment [2] it was below 100 nM; in experiment [3], above 10000 nM; in experiment [4], below 100 nM.

With `Nc1nc2ccc(-c3ccc4nc(N)sc4c3)cc2o1` [Compound 243], the half-maximal inhibitory concentration (IC50) in experiment [1] is below 100 nM; in experiment [2], below 100 nM; in experiment [3] it was above 10000 nM; in experiment [4] it was below 1000 nM.

Regarding `Nc1cn2cc(-c3ccc4oc(N)nc4c3)ccc2n1` [Compound 245], the IC50 in experiment [1] was below 10000 nM; in experiment [2], below 1000 nM; in experiment [3], above 10000 nM; in experiment [4], below 1000 nM.

With `Nc1nc2ccc(-c3ccc4nc(N)oc4c3)cc2o1` [Compound 246], the IC50 in experiment [1], in experiment [2], in experiment [3] and in experiment [4] was above 10000 nM throughout.

For the compound `Nc1cn2cc(-c3ccc4nc(N)oc4c3)ccc2n1` [Compound 247], the IC50 in experiment [1] was below 10000 nM; in experiment [2], below 10000 nM; in experiment [3] it was above 10000 nM; in experiment [4] it was above 10000 nM.

Consider `Nc1nc2cc(-c3ccc4sc(N)nc4c3)ccc2o1` [Compound 248], for which the IC50 is below 1000 nM in experiment [1], below 1000 nM in experiment [2], below 10000 nM in experiment [3] and below 10000 nM in experiment [4].

As to `Nc1nc2ccc(-c3ccc4sc(N)nc4c3)cc2o1` [Compound 249], the IC50 was below 100 nM in experiment [1], below 100 nM in experiment [2], below 1000 nM in experiment [3] and below 100 nM in experiment [4].
